Counter-ions that a name gives are not always drawn. Like-named read-outs stand apart in the source and are kept apart here.
How the values were obtained:
[1] = tested on: intracellular amastigotes of L. donovani strain MHOM-ET-67/L82; assay: Activity against Leishmania donovani intracellular amastigotes in mouse peritoneal macrophages; settings: Leishmania donovani, Peritoneal macrophage, in Mus musculus
Procedure: After 24 h 1.2 x 10^5 amastigote L. donovani in 100 μl were added. The amastigotes were taken from an axenic culture grown at pH 5.4. Four hours later, the medium containing free amastigote forms was removed and replaced by fresh medium. The next day the medium was replaced by medium with or without a serial drug dilution of seven 3-fold dilution steps covering a range from 30 to 0.04 μg/ml. Parasite growth in the presence of the drug was compared to control wells. After 96 h of incubation, the medium was removed and the slides fixed with methanol for 10 min followed by staining with a 10% Giemsa solution. Infected and non-infected macrophages were counted for the control cultures and those exposed to the serial drug dilutions. The infection rates were determined. The results were expressed as a percentage reduction in parasite burden compared to control wells, and the IC50 was calculated by linear regression analysis. The collection of mouse peritoneal macrophages was done at the Swiss Tropical and Public Health Institute (Basel) according to the rules and regulations for the protection of animal rights ("Tierschutzverordnung") of the Swiss "Bundesamt für Veterinärwesen".

P. falciparum strain K1 = assay: In vitro activity against P. falciparum, serial drug dilution assay; settings: for selectivity ratio: rat; for Activity against P. falciparum (in words): in vitro
Procedure: (§1) Drug stock solutions (10mg/ml) were in DMSO (100%). […] Selectivity index (SI) was calculated as IC50 L6 cells/IC50 parasite.

[2] = tested on: axenic amastigotes of L. donovani, strain MHOM-ET-67/L82; assay: In vitro activity against L. donovani axenic amastigotes, serial drug dilution assay; type: cell-based, Leishmania donovani; settings: Leishmania donovani
Procedure: as §1

[3] = tested on: T. cruzi, strain Tulahuen C4, intracellular amastigotes; assay: microbe, parasite or virus in culture; settings: Trypanosoma cruzi, TULAHUEN
Procedure: as §1

in vitro = settings: rat
Procedure: as §1

[4] = Cytotoxicity on macrophages infected with L. donovani; type: cell-based, mouse; settings: mouse
[5] = tested on: T. b. rhodesiense strain STIB 900, trypomastigotes; assay: In vitro activity against T. b. rhodesiense, serial drug dilution assay; settings: for IC50: Trypanosoma brucei
Procedure: as §1

[6] = 96 h, read-out: IC50 L. don. intracell
[7] = Plasmodium falciparum, K1, read-out: IC50 P. falc. K1
[8] = axenic amastigotes, strain MHOM-ET-67/L82, means of two independent assays, read-out: IC50 L. don. axen.
[9] = macrophages infected with L. donovani, read-out: IC50 Cytotox. mac.inf.
[10] = L6 cells, IC50 Cytotox. L6, L6 cells, means of two independent assays
[11] = mouse peritoneal macrophages infected with L. donovani, macrophages infected with L. donovani, read-out: IC50 Cytotox. mac.inf.
[12] = read-out: L. don. intracell IC50
[13] = infected macrophages, read-out: Cytotox. mac.inf. IC50
[14] = Plasmodium falciparum, K1, read-out: P. falc. IC50
[15] = L. donovani axenic amastigotes, read-out: L. don. axen. IC50
[16] = Selectivity index: IC50 Cytotoxicity L6/ IC50 P. falciparum

Row | SMILES | IC50 [1, 6] [µM] | IC50 (P. falciparum strain K1; [7]) [µM] | IC50 [2, 8] [µM] | IC50 ([3]; read-out: IC50 T. cruzi) [µM] | IC50 at 96 h [4, 9] [µM] | IC50 ([5]; read-out: IC50 T. b. rhod.) [µM] | IC50 (in vitro; IC50 Cytotox. L6) [µM] | also measured
1 | CC(C)CN(C[C@@H](O)[C@H](Cc1ccccc1)NC(=O)O[C@H]1CCOC1)S(=O)(=O)c1ccc(N)cc1 [Amprenavir] | > 59.3 | 15.2 | 113 | 105 | > 59.3 | 28.5 | – | IC50 (in vitro): 160 µM
2 | COC(=O)N[C@H](C(=O)N[C@@H](Cc1ccccc1)[C@@H](O)CN(Cc1ccc(-c2ccccn2)cc1)NC(=O)[C@@H](NC(=O)OC)C(C)(C)C)C(C)(C)C [Atazanavir (Sulfate), Atazanavir] | > 37.5 | 7.95 | 24.1 | 33.3 | – | 12.7 | – | IC50 (in vitro; [10]): 46.5 µM; IC50 at 96 h [4, 11]: > 37.5 µM
3 | CC(Cc1cccc(C(F)(F)F)c1)NCCOC(=O)c1ccccc1 (centres unmarked) [Benfluorex] | 54.4 | 6.52 | 243 | 73.7 | > 85.4 | 21.1 | 49.1 | –
4 | c1ccc(-c2ccc(C(c3ccccc3)n3ccnc3)cc2)cc1 (centres unmarked) [Bifonazole] | > 32.2 | 3.18 | 5.48 | 0.003 | > 32.2 | 26.8 | 39.3 | –
5 | O=C(O)COCCN1CCN(C(c2ccccc2)c2ccc(Cl)cc2)CC1 (centres unmarked) [Cetirizine (Hydrochloride), Cetirizine] | > 70.5 | 20 | 186 | 120 | > 70.5 | 99.5 | 149 | –
6 | CCN(CC)CCCC(C)Nc1ccnc2cc(Cl)ccc12 (centres unmarked) [Chloroquine (Diphosphate), Chloroquine] | – | 0.17 | – | – | – | 3.81 | – | IC50 [1, 12]: > 58.9 µM; selectivity ratio (P. falciparum strain K1): 298; IC50 (P. falciparum strain K1; read-out: IC50 P. falc. K1): 0.13 µM; IC50 ([2]; read-out: L. don. axen. IC50): > 196 µM; IC50 ([3]; read-out: T. cruzi IC50): 99.2 µM; IC50 (in vitro): 50.6 µM; IC50 at 96 h [4, 13]: > 58.9 µM; selectivity ratio ([5]; rat): 13
7 | CN(C)CCCN1c2ccccc2Sc2ccc(Cl)cc21 [Chlorpromazine] | > 9.41 | 3.03 | 48.5 | 17.2 | 31.4 | 1.25 | 12.3 | –
8 | CN/C(=N/CCSCc1nc[nH]c1C)NC#N [Cimetidine] | > 119 | 29.2 | > 396 | 351 | > 119 | > 396 | 302 | –
9 | O=C(O)c1cn(C2CC2)c2cc(N3CCNCC3)c(F)cc2c1=O [Ciprofloxacin] | – | – | – | – | – | – | – | IC50 [1, 12]: > 90.5 µM; IC50 (P. falciparum strain K1; [14]): 13.2 µM; IC50 [2, 15]: > 302 µM; IC50 ([3]; read-out: T. cruzi IC50): 92 µM; IC50 (in vitro; Cytotox. L6 IC50): 118 µM; IC50 at 96 h [4, 13]: > 90.5 µM; IC50 ([5]; read-out: T. b. rhod. IC50): 35.9 µM
10 | Clc1ccc(C(OCCN2CCCCC2)c2ccccc2)cc1 (centres unmarked) [Cloperastine] | > 30.3 | 0.87 | 265 | 9.46 | – | 4.91 | – | Activity against P. falciparum (in words) (P. falciparum strain K1): selective activities; selectivity ratio (P. falciparum strain K1; [16]): 50; IC50 (in vitro; [10]): 43.4 µM; MCC at 96 h ([4]; mouse peritoneal macrophages infected with L. donovani, read-out: IC50 Cytotox. mac.inf.): 90.9 µM
11 | C#C[C@]1(O)CC[C@H]2[C@@H]3CCC4=Cc5oncc5C[C@]4(C)[C@H]3CC[C@@]21C [Danazol] | – | – | – | – | – | – | – | IC50 [1, 12]: > 29.6 µM; IC50 (P. falciparum strain K1; [14]): 14.1 µM; IC50 [2, 15]: 10.2 µM; IC50 ([3]; read-out: T. cruzi IC50): 6.25 µM; IC50 (in vitro; Cytotox. L6 IC50): 32 µM; IC50 at 96 h [4, 13]: > 29.6 µM; IC50 ([5]; read-out: T. b. rhod. IC50): 45.9 µM
12 | Nc1ccc(S(=O)(=O)c2ccc(N)cc2)cc1 [Dapsone] | > 121 | 168 | > 403 | 220 | > 121 | 353 | 204 | –
13 | OCCN(CCO)c1nc(N2CCCCC2)c2nc(N(CCO)CCO)nc(N3CCCCC3)c2n1 [Dipyridamole] | > 59.5 | 1.3 | 62 | 29.3 | > 59.5 | 7.45 | 38.6 | Activity against P. falciparum (in words) (P. falciparum strain K1): selective activities
14 | C[C@H]1c2cccc(O)c2C(=O)C2=C(O)[C@]3(O)C(=O)C(C(N)=O)=C(O)[C@@H](N(C)C)[C@@H]3[C@@H](O)[C@@H]21 [Doxycycline] | – | – | – | – | – | – | – | IC50 [1, 12]: > 22.5 µM; IC50 (P. falciparum strain K1; [14]): 4.48 µM; IC50 [2, 15]: 24.1 µM; IC50 ([3]; read-out: T. cruzi IC50): 39.1 µM; IC50 (in vitro; Cytotox. L6 IC50): 14.5 µM; MCC at 96 h [4, 13]: 67.5 µM; IC50 ([5]; read-out: T. b. rhod. IC50): 63.7 µM
15 | CCn1cc(C(=O)O)c(=O)c2cc(F)c(N3CCNCC3)nc21 [Enoxacin] | – | – | – | – | – | – | – | IC50 [1, 12]: > 93.7 µM; IC50 (P. falciparum strain K1; [14]): 76.8 µM; IC50 [2, 15]: > 312 µM; IC50 ([3]; read-out: T. cruzi IC50): 163 µM; IC50 (in vitro; Cytotox. L6 IC50): 25 µM; IC50 at 96 h [4, 13]: > 93.7 µM; IC50 ([5]; read-out: T. b. rhod. IC50): 113 µM
16 | CC[C@H]1OC(=O)[C@H](C)[C@@H](O[C@H]2C[C@@](C)(OC)[C@@H](O)[C@H](C)O2)[C@H](C)[C@@H](O[C@@H]2O[C@H](C)C[C@H](N(C)C)[C@H]2O)[C@](C)(O)C[C@@H](C)C(=O)[C@H](C)[C@@H](O)[C@]1(C)O [Erythromycine (Hydrate), Erythromycine] | > 39.9 | 9.91 | > 133 | 114 | > 39.9 | 72.1 | 92.2 | –
17 | CC(=O)OCC(CCn1cnc2cnc(N)nc21)COC(C)=O [Famciclovir] | > 93.4 | > 156 | > 311 | 207 | > 93.4 | 225 | 180 | –
18 | CC(=O)[C@H]1CC[C@H]2[C@@H]3CC[C@H]4C[C@](C)(O)CC[C@]4(C)[C@H]3CC[C@]12C [Ganaxolone] | – | – | – | – | – | – | – | IC50 [1, 12]: > 90.2 µM; IC50 (P. falciparum strain K1; [14]): > 15 µM; IC50 [2, 15]: 42.5 µM; IC50 ([3]; read-out: T. cruzi IC50): 65 µM; IC50 (in vitro): 23.5 µM; IC50 at 96 h [4, 13]: > 90.2 µM; IC50 ([5]; read-out: T. b. rhod. IC50): 5.47 µM
19 | Nc1nc(O)c2ncn(COC(CO)CO)c2n1 [Ganciclovir] | > 118 | > 196 | > 392 | 240 | > 118 | 252 | 179 | –
20 | COc1ccc(Cl)cc1C(=O)NCCc1ccc(S(=O)(=O)NC(=O)NC2CCCCC2)cc1 [Glybenclamide] | – | – | – | – | – | – | – | IC50 [1, 12]: > 60.7 µM; IC50 (P. falciparum strain K1; [14]): 38.3 µM; IC50 [2, 15]: 9.8 µM; IC50 ([3]; read-out: T. cruzi IC50): 93.9 µM; IC50 (in vitro): 116 µM; IC50 at 96 h [4, 13]: > 60.7 µM; IC50 ([5]; read-out: T. b. rhod. IC50): 87.7 µM
21 | COC1=CC(=O)C[C@@H](C)[C@]12Oc1c(Cl)c(OC)cc(OC)c1C2=O [Griseofulvin] | – | – | – | – | – | – | – | IC50 [1, 12]: > 85 µM; IC50 (P. falciparum strain K1; [14]): 75.1 µM; IC50 [2, 15]: 87 µM; IC50 ([3]; read-out: T. cruzi IC50): 87.3 µM; IC50 (in vitro; Cytotox. L6 IC50): 20.5 µM; IC50 at 96 h [4, 13]: > 85 µM; IC50 ([5]; read-out: T. b. rhod. IC50): 40 µM
22 | CC(C)(C)NC(=O)[C@@H]1CN(Cc2cccnc2)CCN1C[C@@H](O)C[C@@H](Cc1ccccc1)C(=O)N[C@H]1c2ccccc2C[C@H]1O [Indinavir (Sulfate), Indinavir] | > 42.3 | 6.03 | > 141 | 93.5 | > 42.3 | 48.2 | – | IC50 (in vitro): > 141 µM
23 | NNC(=O)c1ccncc1 [Isoniazide] | > 219 | 246 | > 729 | 383 | > 219 | > 729 | 602 | –
24 | CN1CCC(=C2c3ccccc3CC(=O)c3sccc32)CC1 [Ketotifen] | > 97 | 0.75 | > 291 | 141 | – | 15.2 | – | Activity against P. falciparum (in words) (P. falciparum strain K1): selective activities; selectivity ratio (P. falciparum strain K1; [16]): 196; IC50 (in vitro; [10]): 147 µM; IC50 at 96 h [4, 11]: > 97 µM
25 | Cc1oncc1C(=O)Nc1ccc(C(F)(F)F)cc1 [Leflunomide] | > 111 | > 18.5 | 21.8 | 152 | > 111 | 213 | 124 | –
26 | CCC[C@@H]1C[C@@H](C(=O)N[C@@H]([C@H]2O[C@H](SC)[C@H](O)[C@@H](O)[C@H]2O)[C@@H](C)O)N(C)C1 [Lincomycin] | > 73.8 | 7.08 | > 221 | > 221 | > 73.8 | > 221 | > 221 | –
27 | Cc1cccc(C)c1OCC(=O)N[C@@H](Cc1ccccc1)[C@@H](O)C[C@H](Cc1ccccc1)NC(=O)[C@H](C(C)C)N1CCCNC1=O [Lopinavir] | > 47.7 | 1.92 | 11.8 | 15.4 | > 47.7 | 10.8 | 18.9 | –

Source: PMC4535766, “Antiprotozoal Activity Profiling of Approved Drugs: A Starting Point toward Drug Repositioning” (PLoS ONE, 2015)
